This passage reports colony formation, growth of colonies and cell viability results from patent publication US20160374944A1, “COMPOSITIONS AND METHODS FOR TREATING AND PREVENTING CANCER BY TARGETING AND INHIBITING CANCER STEM CELLS” (priority 2011, published 2016).

Experiment [1] concerns Pancreatic CSCs. In words: colony formation in soft agar. Type of experiment: cell-based, human. As to conditions: 21 days. As for the experimental part:
(A) Pancreatic CSCs were seeded in suspension and treated with EGCG (0-60 μM) for 7 days. Pictures of spheroids formed in suspension were taken by a microscope. (B) Pancreatic CSCs were seeded in suspension and treated with EGCG (0-60 μM) for 7 days. At the end of incubation period, spheroids were collected, and dissociated with Accutase (Innovative Cell Technologies, Inc.). For secondary spheroids, cells were reseeded and treated with EGCG (0-60 μM) for 7 days. Cell viability was measured by trypan blue assay. […] Pancreatic CSCs were seeded in soft agar and treated with various doses of EGCG and incubated at […] for 21 days. At the end of incubation period, colonies were counted.
(A) Effects of EGCG and quercetin on spheroid and colony formation. […] CSCs were seeded in suspension and treated with EGCG (0-60 μM) with or without quercetin (20 μM) for 7 days. At the end of incubation period, all the spheroids were collected and resuspended. Cell viability was measured by trypan blue assay. […] Pancreatic CSCs were seeded in soft agar and treated with various doses of EGCG (0-60 μM) with or without quercetin (20 μM) and incubated at […] for 21 days. At the end of incubation period, colonies were counted. […] (B) Effects of EGCG and quercetin on invasion and migration. Upper panel, Matrigel invasion assay. CSCs were plated onto the Matrigel-coated membrane in the top chamber of the transwell and treated with EGCG (0-60 μM) with or without quercetin (20 μM) for 48 hrs. Cells invaded to the lower chambered were fixed with methanol, stained with crystal violet and counted. […] Lower panel, Transwell migration assay. Pancreatic CSCs were plated in the top chamber of the transwell and treated with EGCG (0-60 μM) with or without quercetin (20 μM) for 48 hrs. Cells migrated to the lower chambered were fixed with methanol, stained with crystal violet and counted. […] CSCs were seeded in suspension and treated with EGCG (0-60 μM) with or without quercetin (20 μM) for 7 days. At the end of incubation period, all the spheroids were collected.
At the end of incubation period, all the spheroids were collected and resuspended. Cell viability was measured by trypan blue assay. […] At the end of incubation period, colonies were counted.

Experiment [2] concerns Pancreatic CSCs. In words: cell viability, trypan blue, Vi-CELL analyzer. Type of experiment: cell-based, human. The settings on record: 3 days. As for the experimental part: Pancreatic CSCs were treated with resveratrol (0-20 μM), curcumin (0-20 μM), honokiol (0-20 μM) and diallyl trisulphide (0-20 μM) for 3 days, and cell viability was measured by staining with trypan blue using Vi-CELL analyzer (Beckman Counter).
Pancreatic CSCs were treated with sulforaphane (0-20 μM), rottlerin (0-2 μM), EGCG (0-60 μM) and embelin (0-5 μM) for 3 days, and cell viability was measured by staining with trypan blue using Vi-CELL analyzer (Beckman Counter).
(A) Pancreatic CSCs were treated with SAHA (3 and 5 μM) and 5-Aza-dc (2 and 4 μM) and cell viability was measured at 48 h by staining with trypan blue using Vi-CELL analyzer (Beckman Counter). (B) Pancreatic CSCs were untreated (a) or treated with SAHA (b) or 5-Aza-dC (c) for 48 h, and apoptosis was measured by staining with annexin-PI using Accuri Flow Cytometer. (C) Caspase-3/7 activity was measured in pancreatic CSCs treated with SAHA (0.5 and 2 μM) or 5-Aza-dC (1 and 3 μM) for 25 h.
Pancreatic CSCs were treated with resveratrol (0-20 μM), curcumin (0-20 μM), honokiol (0-20 μM), and diallyl trisulphide (0-20 μM) for 3 days and cell viability was measured by staining with trypan blue using Vi-CELL analyzer. The results of those studies are illustrated in FIG. 27.
Pancreatic CSCs were treated with sulforaphane (0-20 μM), rottlerin (0-2 μM), EGCG (0-60 μM), and embelin (0-5 μM) for 3 days and cell viability was measured by staining with trypan blue using Vi-CELL analyzer. The results of those studies are illustrated in FIG. 28.
Pancreatic CSCs were treated with SAHA […] Vorinostat (3 and 5 μM) and 5-Aza-2′-deoxycytidine (5-Aza-dC, 2 and 4 μM) and cell viability was measured at 48 hours by staining with trypan blue using Vi-CELL analyzer. The results of those studies are illustrated in FIG. 31A.

The mark [3] stands for this setting: EGCG 0-60 μM with or without quercetin 20 μM.

As to `O=C(O[C@@H]1Cc2c(O)cc(O)cc2O[C@@H]1c1cc(O)c(O)c(O)c1)c1cc(O)c(O)c(O)c1` [EGCG, epigallocatechin gallate], the colony formation result with Pancreatic CSCs [1] (setting [3]) is “inhibited cell viability in spheroids, colony formation, migration and invasion by CSCs in a dose-dependent manner”. In addition, the growth of colonies entry in the experiment with Pancreatic CSCs [1] (EGCG) is “inhibited the growth of colonies in a dose-dependent manner”. Also, the cell viability entry in the experiment with Pancreatic CSCs [2] is “inhibit cell viability”.
Regarding `O=c1c(O)c(-c2ccc(O)c(O)c2)oc2cc(O)cc(O)c12` [quercetin], the colony formation entry in the experiment on Pancreatic CSCs [1] (setting [3]) and with Pancreatic CSCs [1] (SFN with or without quercetin) was “effective alone” throughout.
As for `CC(=O)c1c(O)c(C)c(O)c(Cc2c(O)c3c(c(C(=O)/C=C/c4ccccc4)c2O)OC(C)(C)C=C3)c1O` [rottlerin], in the experiment on Pancreatic CSCs [2], the cell viability entry was “inhibit cell viability”.
In the case of `C[S+]([O-])CCCCN=C=S` (centres unmarked) [sulforaphane], the colony formation result in the experiment on Pancreatic CSCs [1] (SFN with or without quercetin) was “inhibited the cell viability and colony formation of pancreatic CSCs in a dose-dependent manner”. Further, the cell viability result in the experiment with Pancreatic CSCs [2] is “inhibit cell viability”.
